In ChEMBL document CHEMBL1201862, “PubChem BioAssay data set” (2004):
Activity calls are given as the source filed them.

Assays:
[1] = target: T1, Heat shock factor protein 1 (Mus musculus, UniProt P38532); test: enhancement of HSF1-driven luciferase signal – cell-based, NIH3T3, luminescence, dose retest, confirmation (AID 435004); type: functional;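 further: stress induced by proteasome inhibitor MG132 added 30 min after compound; luciferase reporter driven by HSF1 response element in NIH3T3 cells; actives raise luminescence as potentiators of the MG132 stress response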
T1 sequence (P38532 whole entry): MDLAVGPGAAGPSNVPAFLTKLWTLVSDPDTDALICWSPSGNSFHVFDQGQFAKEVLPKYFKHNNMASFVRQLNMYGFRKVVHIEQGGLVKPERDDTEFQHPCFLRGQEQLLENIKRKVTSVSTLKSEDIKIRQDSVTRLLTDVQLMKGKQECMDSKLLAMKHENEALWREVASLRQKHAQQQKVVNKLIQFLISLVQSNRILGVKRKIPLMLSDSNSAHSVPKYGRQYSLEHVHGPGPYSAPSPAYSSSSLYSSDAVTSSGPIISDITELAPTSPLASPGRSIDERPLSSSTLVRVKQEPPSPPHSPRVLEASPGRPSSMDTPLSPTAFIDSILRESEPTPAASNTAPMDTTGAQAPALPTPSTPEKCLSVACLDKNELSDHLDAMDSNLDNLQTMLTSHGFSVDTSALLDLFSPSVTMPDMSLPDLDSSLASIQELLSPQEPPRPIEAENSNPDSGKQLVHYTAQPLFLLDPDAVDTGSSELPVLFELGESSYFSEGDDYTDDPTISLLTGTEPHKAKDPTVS

[2] = target: Cytochrome P450 2C19 (Homo sapiens, UniProt P33261); test: Cytochrome panel assay with activity outcomes. Panel member name: p450-cyp2c19 Compounds with AC50 equal or less than 10 uM are considered active; type: functional; conditions: read-out: AC50
[3] = target: Cytochrome P450 2D6 (Homo sapiens, UniProt P10635);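 further: CYP2D6 member of a cytochrome P450 panel assay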
[4] = target: T2, RNA-binding protein pos-1 (Caenorhabditis elegans, UniProt G5EF15); test: disruptors of C. elegans POS-1 RNA interaction – biochemical, fluorescence polarization, dose response (AID 1964);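 further: purified POS-1 fused to maltose binding protein made in E. coli; potency of compounds blocking POS-1 binding to fluorescent RNA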
T2 sequence (G5EF15 whole entry): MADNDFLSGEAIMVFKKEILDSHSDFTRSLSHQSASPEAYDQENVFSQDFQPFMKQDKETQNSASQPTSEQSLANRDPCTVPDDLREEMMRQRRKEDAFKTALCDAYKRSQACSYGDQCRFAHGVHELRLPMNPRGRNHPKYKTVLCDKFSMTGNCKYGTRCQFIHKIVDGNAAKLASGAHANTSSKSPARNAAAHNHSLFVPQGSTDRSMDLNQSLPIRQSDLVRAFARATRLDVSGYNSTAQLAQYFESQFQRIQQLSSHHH

[5] = target: T3, Zinc finger protein mex-5 (Caenorhabditis elegans, UniProt Q9XUB2); test: potency of MEX-5 RNA-binding blockers – biochemical, C. elegans, fluorescence polarization, dose response (AID 1960)
T3 sequence (Q9XUB2 whole entry): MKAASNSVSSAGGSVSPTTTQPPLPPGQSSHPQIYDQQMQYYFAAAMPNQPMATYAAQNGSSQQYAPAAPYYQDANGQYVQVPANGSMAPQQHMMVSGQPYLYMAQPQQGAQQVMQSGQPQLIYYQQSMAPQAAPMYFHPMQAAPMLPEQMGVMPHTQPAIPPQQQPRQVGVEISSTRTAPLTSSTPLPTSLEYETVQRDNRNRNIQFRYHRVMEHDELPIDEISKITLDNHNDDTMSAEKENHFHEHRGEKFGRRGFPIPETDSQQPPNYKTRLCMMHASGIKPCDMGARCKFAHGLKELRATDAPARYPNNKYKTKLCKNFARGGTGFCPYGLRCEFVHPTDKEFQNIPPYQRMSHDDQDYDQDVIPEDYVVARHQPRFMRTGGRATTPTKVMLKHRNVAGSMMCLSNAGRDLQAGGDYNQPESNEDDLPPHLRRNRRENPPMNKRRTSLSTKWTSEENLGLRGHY

[6] = system: Streptococcus sp. 'group A'; test: Streptococcus pyogenes SK(-)GAS viability under kanamycin – luminescence, BacTiterGlo, confirmation, counter-screen for streptokinase expression inhibitor project, dose response (AID 1900); type: functional, organism-based
[7] = target: T4, Streptokinase A (Streptococcus pyogenes serotype M1, UniProt P10520); test: viability-normalized secreted streptokinase activity reduction – plasminogen activation absorbance, OD405, dose response (AID 1914); type: functional, Streptococcus pyogenes M1 GAS;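 further: secreted streptokinase activity via plasminogen activation per viability signal from cell pellet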
T4 sequence (P10520 whole entry): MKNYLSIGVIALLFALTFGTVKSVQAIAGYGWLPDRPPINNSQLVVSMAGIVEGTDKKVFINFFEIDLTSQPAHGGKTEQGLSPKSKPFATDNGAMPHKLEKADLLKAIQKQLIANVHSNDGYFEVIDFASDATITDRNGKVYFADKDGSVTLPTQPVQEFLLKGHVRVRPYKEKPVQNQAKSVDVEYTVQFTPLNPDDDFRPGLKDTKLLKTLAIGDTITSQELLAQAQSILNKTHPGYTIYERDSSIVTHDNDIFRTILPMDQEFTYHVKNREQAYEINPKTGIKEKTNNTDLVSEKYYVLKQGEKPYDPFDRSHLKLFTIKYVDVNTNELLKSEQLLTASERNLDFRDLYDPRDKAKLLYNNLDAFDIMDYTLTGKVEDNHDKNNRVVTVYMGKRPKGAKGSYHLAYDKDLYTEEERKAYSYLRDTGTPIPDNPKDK

[8] = Trypanosoma cruzi growth suppression in host cells – NIH3T3 host cells, beta-gal luminescence, confirmation (AID 2044); type: functional, cell-based;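 further: intracellular parasites grown in NIH/3T3 mouse fibroblasts as host cells; luminescent beta-galactosidase reporter signal from transgenic T. cruzi replicating inside host cells; inhibitors lower the luminescence signal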
[9] = NIH3T3 cell viability loss – ATP luminescence, mouse fibroblasts, counter-screen, dose response (AID 2010); type: functional, cell-based;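 further: cells exposed to compound for about 90 hours before reading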
[10] = system: Streptococcus; test: GAS UMAA2166 growth inhibition – luminescence, BacTiterGlo, counter-screen for streptokinase expression inhibitor project, dose response (AID 1915); type: functional, organism-based;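 further: potency for reduction of bacterial viability or growth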
[11] = target: T5, Cytochrome P450 1A2 (Homo sapiens, UniProt P05177);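 further: PubChem cytochrome P450 panel assay, CYP1A2 panel member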
T5 sequence (P05177 whole entry): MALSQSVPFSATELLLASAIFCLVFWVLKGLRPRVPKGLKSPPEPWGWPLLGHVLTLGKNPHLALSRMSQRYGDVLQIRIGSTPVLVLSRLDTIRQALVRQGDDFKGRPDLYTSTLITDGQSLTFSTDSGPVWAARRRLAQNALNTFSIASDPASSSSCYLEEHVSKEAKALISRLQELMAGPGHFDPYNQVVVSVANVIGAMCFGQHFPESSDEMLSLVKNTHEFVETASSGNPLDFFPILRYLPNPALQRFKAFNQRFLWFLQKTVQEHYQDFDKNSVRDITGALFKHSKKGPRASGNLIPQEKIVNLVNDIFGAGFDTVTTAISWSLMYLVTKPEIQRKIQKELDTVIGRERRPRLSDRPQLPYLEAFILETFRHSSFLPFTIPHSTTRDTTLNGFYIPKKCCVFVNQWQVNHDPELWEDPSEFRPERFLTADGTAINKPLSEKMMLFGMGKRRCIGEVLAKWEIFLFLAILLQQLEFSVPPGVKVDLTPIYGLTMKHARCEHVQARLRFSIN

Chain of Cytochrome P450 2D6 (P10635 whole entry, the tested form may be a part): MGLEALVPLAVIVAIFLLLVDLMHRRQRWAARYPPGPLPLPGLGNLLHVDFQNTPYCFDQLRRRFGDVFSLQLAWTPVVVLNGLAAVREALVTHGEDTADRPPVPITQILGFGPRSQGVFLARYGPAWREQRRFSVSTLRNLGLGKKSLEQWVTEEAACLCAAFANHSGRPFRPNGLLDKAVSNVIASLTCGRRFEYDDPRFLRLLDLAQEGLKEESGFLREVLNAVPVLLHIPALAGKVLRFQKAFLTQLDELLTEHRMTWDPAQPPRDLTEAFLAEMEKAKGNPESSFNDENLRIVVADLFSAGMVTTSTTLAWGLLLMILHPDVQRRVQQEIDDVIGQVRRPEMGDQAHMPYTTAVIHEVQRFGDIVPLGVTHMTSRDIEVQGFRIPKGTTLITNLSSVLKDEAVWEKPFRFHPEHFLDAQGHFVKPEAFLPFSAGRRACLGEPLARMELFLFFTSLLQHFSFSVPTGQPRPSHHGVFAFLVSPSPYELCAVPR
Chain of Cytochrome P450 2C19 (P33261 whole entry): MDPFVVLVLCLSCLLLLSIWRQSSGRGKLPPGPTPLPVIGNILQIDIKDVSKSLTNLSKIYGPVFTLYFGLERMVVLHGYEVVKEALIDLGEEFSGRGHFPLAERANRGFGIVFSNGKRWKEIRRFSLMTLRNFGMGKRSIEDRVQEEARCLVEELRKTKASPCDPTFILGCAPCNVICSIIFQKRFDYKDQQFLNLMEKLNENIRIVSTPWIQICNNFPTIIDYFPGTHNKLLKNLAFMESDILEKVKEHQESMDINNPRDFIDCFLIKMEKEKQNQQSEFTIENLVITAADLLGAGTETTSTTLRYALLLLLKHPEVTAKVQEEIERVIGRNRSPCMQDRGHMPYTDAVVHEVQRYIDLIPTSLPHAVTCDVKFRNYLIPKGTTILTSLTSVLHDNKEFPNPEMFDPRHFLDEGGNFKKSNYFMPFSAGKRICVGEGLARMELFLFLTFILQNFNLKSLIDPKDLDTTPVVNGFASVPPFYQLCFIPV

SMILES: Cc1ccn2c(C(=O)N/N=C\c3ccccc3[N+](=O)[O-])c(C)nc2c1
- EC50 [1]: > 260 µM (inactive)

SMILES: Cc1ccccc1CC(=O)NC1CCCc2ccccc21 (stereo not drawn)
- EC50 [1]: > 260 µM (inactive)

SMILES: CN(C)c1ncc2nc(CCc3ccccc3)c(=O)n(-c3ccccc3)c2n1
- AC50 [2]: 39.8 µM (inconclusive)
- AC50 [3]: 2.51 µM (inconclusive)

SMILES: COc1cc(C2CC(c3cccnc3)=NN2c2ccc(F)cc2)cc(OC)c1OC (stereo not drawn)
- EC50 [1]: 48.5 µM (active)

SMILES: Cc1noc(C)c1-c1nccc(NCc2cccnc2)n1
- AC50 [3]: 20 µM (inconclusive)

SMILES: Cc1ccc(/N=C2\SC(C(=O)NCCc3ccccc3)CC(=O)N2C)cc1C (stereo not drawn)
- EC50 [1]: > 260 µM (inactive)

SMILES: Cc1nc2ccccc2c2oc(C(=O)Nc3ccc4c(c3)OCCO4)cc12
- EC50 [4]: 16.6 µM (active)
- EC50 [5]: 25.9 µM (inconclusive)

SMILES: COC(=O)c1ccc(C23CC2(C(NP(=O)(c2ccccc2)c2ccccc2)c2ccccc2)C3)cc1 (stereo not drawn)
- AC50 [3]: 31.6 µM (inconclusive)

SMILES: COC(=O)CCC(=O)OC1(C)C(=O)C=C2C=C(c3ccsc3)OC=C2C1=O (stereo not drawn)
- EC50 [4]: 36.8 µM (active)
- EC50 [5]: 26.7 µM (inconclusive)

SMILES: COC(=O)/C(=C\C(=O)c1ccccc1)Nc1cccc(C(F)(F)F)c1
- AC50 [3]: 25.1 µM (inconclusive)

SMILES: CCCn1c(=N)c(C(=O)NCC2CCCO2)cc2c(=O)n3cccc(C)c3nc21 (stereo not drawn)
- EC50 [4]: > 300 µM (not active)
- EC50 [5]: > 300 µM (not active)

SMILES: CC(C)(C)c1nc(NC(=O)Nc2ccccc2)sc1Br
- EC50 [6]: 4.45 µM (active)
- EC50 [7]: > 50 µM (not active)
- EC50 [8]: 4.22 µM (active)
- EC50 [9]: > 60 µM (not active)
- EC50 [10]: 6.77 µM (active)

SMILES: CCOc1ccc(N2CC(=O)C(c3nc(O)c4ccccc4n3)=C2N)cc1
- EC50 [1]: > 260 µM (inactive)

SMILES: COc1ccc(CN(CC2CCC(C(=O)O)CC2)C(S)=Nc2cc(Cl)ccc2OC)cc1 (stereo not drawn)
- EC50 [1]: > 260 µM (inactive)

SMILES: Cc1cc(=O)nc2c3ccccc3n(CC(=O)Nc3ccccc3Br)n12
- EC50 [4]: > 300 µM (not active)
- EC50 [5]: 103 µM (active)

SMILES: Cc1ccc(NC(S)=Nc2nc(CC(=O)Nc3ccccc3)cs2)cc1
- AC50 [3]: 1.78 µM (inconclusive)

SMILES: CCCCC#Cc1ccccc1CC(=O)Nc1ccccc1
- AC50 [3]: 12.6 µM (inconclusive)

SMILES: O=C(O)CSc1c(-c2ccccc2)[nH]c2ccccc12
- EC50 [1]: > 260 µM (inactive)

SMILES: CCN1/C(=C2/SC(=S)N(NC(C)=O)C2=O)Sc2ccccc21
- EC50 [4]: 60.7 µM (active)
- EC50 [5]: > 300 µM (not active)

SMILES: COC(=O)c1c(C)[nH]c(C(=O)OCC(=O)N(CC(C)C)c2c(N)n(Cc3ccccc3)c(=O)[nH]c2=O)c1C
- EC50 [6]: 5.83 µM (active)
- EC50 [7]: > 150 µM (not active)
- EC50 [10]: > 150 µM (not active)

SMILES: COc1cc(/C=C2/SC(=S)N(Cc3ccccc3)C2=O)ccc1O
- EC50 [6]: 3.89 µM (active)
- EC50 [7]: > 150 µM (not active)
- EC50 [10]: 7.59 µM (active)

SMILES: O=[N+]([O-])c1cccc(/C=N/Nc2nc(N3CCCCC3)nc(N3CCCCC3)n2)c1
- EC50 [6]: 33.5 µM (active)
- EC50 [7]: 39.4 µM (active)
- EC50 [10]: > 150 µM (not active)

SMILES: O=C1C(Cl)=C(Nc2ccccc2O)C(=O)N1c1ccccc1
- EC50 [4]: > 300 µM (not active)
- EC50 [5]: 73 µM (inconclusive)

SMILES: Cc1cnc(CNc2ncnc3ccc(-c4ccccc4C)cc23)cn1
- AC50 [3]: 20 µM (inconclusive)

SMILES: CC[N+](CC)(CCNC(=O)C(=O)NCC[N+](CC)(CC)Cc1ccccc1Cl)Cc1ccccc1Cl [AMBENONIUM]
- AC50 [3]: 39.8 µM (inconclusive)

SMILES: CC(=O)N1CCC2(CCN(Cc3ccccc3)CC2)CC1
- AC50 [3]: 15.8 µM (inconclusive)

SMILES: CCOC(=O)c1cc(C#N)c(SCc2ccc(C#N)cc2)nc1C
- EC50 [1]: 41.9 µM (active)

SMILES: Cn1c(C[C@@H](O)c2nc3ccccc3n2C)nc2ccccc21
- AC50 [3]: 2.51 µM (inconclusive)

SMILES: CC(=O)c1cccc(NC(=O)/C(=C\c2ccco2)NC(=O)c2cccs2)c1
- AC50 [2]: 11.2 µM (inconclusive)
- AC50 [3]: 14.1 µM (inconclusive)
- AC50 [11]: 14.1 µM (inconclusive)

SMILES: COc1ccc(S(=O)(=O)n2nc(OC(=O)c3ccccc3Br)cc2N)cc1
- EC50 [1]: 18.2 µM (active)

SMILES: O=C(NC1CCCN(Cc2ccccc2F)C1)c1cccs1 (stereo not drawn)
- EC50 [1]: > 260 µM (inactive)

SMILES: Nc1ccccc1Nc1ccc([N+](=O)[O-])cc1[N+](=O)[O-]
- EC50 [1]: > 260 µM (inactive)

SMILES: OCCOc1ccc(C2=NCCO2)cc1
- EC50 [4]: > 300 µM (not active)
- EC50 [5]: > 300 µM (not active)

SMILES: COc1cc2[nH]c(=S)n(Cc3ccco3)c(=O)c2cc1OC
- EC50 [1]: > 260 µM (inactive)

SMILES: Oc1nc(CSc2ncnc3sccc23)nc2ccccc12
- EC50 [6]: 0.734 µM (active)
- EC50 [7]: > 150 µM (not active)
- EC50 [10]: 14.3 µM (active)

SMILES: CCCCCCCCCCCCCC(=O)O[C@H](CC(=O)[O-])C[N+](C)(C)C
- AC50 [3]: 31.6 µM (inconclusive)

SMILES: COc1cc(C2NC(S)=NC(C)=C2C(=O)OC(C)C)ccc1OC(C)C (stereo not drawn)
- EC50 [4]: > 300 µM (not active)
- EC50 [5]: > 300 µM (not active)

SMILES: Cc1ccc(CC2S/C(=N\c3ccccc3)N(c3ccccc3)C2=O)cc1 (stereo not drawn)
- EC50 [1]: > 260 µM (inactive)

SMILES: CC(C)(C)N(Cc1ccccc1)C(=O)COc1cccnc1[N+](=O)[O-]
- EC50 [6]: > 150 µM (not active)
- EC50 [7]: > 150 µM (not active)
- EC50 [10]: > 150 µM (not active)

SMILES: CC(C)(C)NC(=O)c1ccc2c3c(cccc13)CC2
- EC50 [1]: > 260 µM (inactive)

SMILES: NC(=O)[C@@H]1CCCN1Cc1c(C(=O)N2CCc3ccccc3C2)nc2ccc(Cl)cn12
- EC50 [4]: 61.7 µM (active)
- EC50 [5]: 47 µM (active)

SMILES: COC(=O)CCCC1=CC2=CC(=O)C(C)(OC(=O)c3cccs3)C(=O)C2=CO1 (stereo not drawn)
- EC50 [4]: 14 µM (active)
- EC50 [5]: 16.5 µM (active)

SMILES: Cc1ccc(CN(C(=O)c2ccco2)C2CCS(=O)(=O)C2)cc1 (stereo not drawn)
- EC50 [6]: > 150 µM (not active)
- EC50 [7]: > 150 µM (not active)
- EC50 [10]: > 150 µM (not active)

SMILES: COc1cccc(-c2ccc3ncnc(NC4CC4)c3c2)c1
- AC50 [3]: 25.1 µM (inconclusive)
